“Also recorded” adds a separate entry of the source. Like-named read-outs stand apart in the source and are kept apart here.
Assays:
Type in all cases: physicochemical
[1] = Gravimetric Vapour Sorption (GVS) moisture sorption isotherm
Protocol: Sorption isotherms were obtained using a SMS DVS Intrinsic moisture sorption analyser, controlled by DVS Intrinsic Control software. The sample temperature was maintained at 25° C. by the instrument controls. The humidity was controlled by mixing streams of dry and wet nitrogen, with a total flow rate of 200 ml/min. The relative humidity was measured by a calibrated Rotronic probe (dynamic range of 1.0-100% RH), located near the sample. The weight change, (mass relaxation) of the sample as a function of % RH was constantly monitored by a microbalance (accuracy ±0.005 mg). Typically, 5-30 mg of sample was placed in a tared mesh stainless steel basket under ambient conditions. The sample was loaded and unloaded at 40% RH and 25° C. (typical room conditions). A moisture sorption isotherm was performed as outlined below (2 scans per complete cycle). The standard isotherm was performed at 25° C. at 10% RH intervals over a 0-90% RH range. Typically, a double cycle (4 scans) was carried out. Data analysis was carried out within Microsoft Excel using the DVS Analysis Suite.
The sample was recovered after completion of the isotherm and re-analysed by XRPD.

[2] = Storage stability at elevated temperature and humidity (XRPD and HPLC purity after storage)
Protocol: Bruker AXS D8 Advance: XRPD diffractograms were collected on a Bruker D8 diffractometer using Cu Kα radiation (40 kV, 40 mA) and a θ-2θ goniometer fitted with a Ge monochromator. The incident beam passes through a 2.0 mm divergence slit followed by a 0.2 mm anti-scatter slit and knife edge. The diffracted beam passes through an 8.0 mm receiving slit with 2.5° Soller slits followed by the Lynxeye Detector. The software used for data collection and analysis was Diffrac Plus XRD Commander and Diffrac Plus EVA respectively. Samples were run under ambient conditions as flat plate specimens using powder as received. The sample was prepared on a polished, zero-background (510) silicon wafer by gently pressing onto the flat surface or packed into a cut cavity. The sample was rotated in its own plane. The details of the data collection method are: • Angular range: 2 to 42° 2θ • Step size: 0.05° 2θ • Collection time: 0.5 s/step (total collection time: 6.40 min)
Purity analysis was performed on an Agilent Ip 100/Infinity 111260 series system equipped with a diode array detector and using OpenLAB software. The full method details are provided below:
The three potential cocrystals were characterised using DSC, 1H NMR, TGA and by evaluating their stability with XRPD after 7 or 8 days of being stored at 40° C./75% RH. All three cocrystals were unchanged by XRPD after storage at 40° C./75% RH and none had significant amounts of solvent present (Table 28). The 4 HBA cocrystal appeared to have a similar melt to the starting material (ca. 85° C.). […] All initially appeared to have a 1:1 stoichiometry. […]

[3] = Solubility assessment in solvents (visual); details: for solubility: read-out: Observations from solubility assessment
Protocol: API (25 mg) was dispensed to a PLC vial with a magnetic stirrer. At room temperature an aliquot of solvent was added (5 vol.=125 μL) and stirred at 25° C. for at least 5 minutes. A visual assessment was made. Solutions were held at 25° C. and suspensions were placed at 50° C. with stirring for at least 5 minutes. A visual assessment was made and if a suspension was observed, further aliquots of solvent were added at 25° C. and the above steps repeated until a maximum of 50 volumes were added (Table 7).

[4] = Differential Scanning Calorimetry (DSC); details: * = multiple thermal events
Protocol: TA Instruments Q2000: DSC data were collected on a TA Instruments Q2000 equipped with a 50 position auto sampler. Typically, 0.5 3 mg of each sample, in a pin-holed aluminium pan, was heated at 10° C./min from 25° C. to 235° C. A purge of dry nitrogen at 50 mlmL/min was maintained over the sample. The instrument control software was Advantage for Q Series and Thermal Advantage and the data were analysed using Universal Analysis or TRIOS.
TA Instruments Discovery DSC: DSC data were also collected on a TA Instruments Discovery DSC equipped with a 50 position auto-sampler. Typically, 0.5 3 mg of each sample, in a pin-holed aluminium pan, was heated at 10° C./min from 25° C. to 235° C. A purge of dry nitrogen at 50 mlmL/min was maintained over the sample. The instrument control software was TRIOS and the data were analysed using TRIOS or Universal Analysis.

[5] = Storage stability at elevated temperature and humidity (XRPD and HPLC purity after storage); remark: listed apart in the source

Hygroscopicity ([1]; in words, by GVS): not hygroscopic
XRPD after storage ([2]; 40° C./75% RH): Unchanged
Stability at 25° C./97% RH and 40° C./75% RH ([2]; XRPD after storage): Stable,
solubility ([3]; 1,4-dioxane, 25 °C, organic solvent or mixture, thermodynamic from solid, 1,4-Dioxane, 5 vol, 25° C.): > 200 mg/mL
solubility ([3]; 2-methyl-1-propanol, 25 °C, organic solvent or mixture, thermodynamic from solid, 2-methyl-1-propanol, 5 vol, 25° C.): < 200 mg/mL
solubility ([3]; 2-methyl-1-propanol, 50 °C, organic solvent or mixture, thermodynamic from solid, 2-methyl-1-propanol, 5 vol, 50° C.): > 200 mg/mL
solubility ([3]; 2-propanol, 25 °C, organic solvent or mixture, thermodynamic from solid, 2-Propanol, 5 vol, 25° C.): < 200 mg/mL
solubility ([3]; 2-propanol, 50 °C, organic solvent or mixture, thermodynamic from solid, 2-Propanol, 5 vol, 50° C.): > 200 mg/mL
solubility ([3]; IPA:water (9:1 v/v), 25 °C, organic solvent or mixture, thermodynamic from solid, IPA:Water (9:1 v/v), 5 vol, 25° C.): < 200 mg/mL
solubility ([3]; IPA:water (9:1 v/v), 50 °C, organic solvent or mixture, thermodynamic from solid, IPA:Water (9:1 v/v), 5 vol, 50° C.): > 200 mg/mL
solubility ([3]; IPAC, 25 °C, organic solvent or mixture, thermodynamic from solid, IPAC, 5 vol, 25° C.): > 200 mg/mL
solubility ([3]; MEK, 25 °C, organic solvent or mixture, thermodynamic from solid, MEK, 5 vol, 25° C.): > 200 mg/mL
solubility ([3]; MIBK, 25 °C, organic solvent or mixture, thermodynamic from solid, MIBK, 5 vol, 25° C.): > 200 mg/mL
solubility ([3]; TBME, 25 °C, organic solvent or mixture, thermodynamic from solid, TBME, 5 vol, 25° C.): < 200 mg/mL
solubility ([3]; TBME, 25 °C, organic solvent or mixture, thermodynamic from solid, TBME, 10 vol, 25° C.): < 100 mg/mL
solubility ([3]; TBME, 50 °C, organic solvent or mixture, thermodynamic from solid, TBME, 5 vol, 50° C.): < 200 mg/mL
solubility ([3]; TBME, 50 °C, organic solvent or mixture, thermodynamic from solid, TBME, 10 vol, 50° C.): > 100 mg/mL
solubility ([3]; acetone, 25 °C, organic solvent or mixture, thermodynamic from solid, Acetone, 5 vol, 25° C.): > 200 mg/mL
solubility ([3]; acetone:water (95:5 v/v), 25 °C, organic solvent or mixture, thermodynamic from solid, Acetone:water (95:5 v/v), 5 vol, 25° C.): < 200 mg/mL
solubility ([3]; acetone:water (95:5 v/v), 50 °C, organic solvent or mixture, thermodynamic from solid, Acetone:water (95:5 v/v), 5 vol, 50° C.): > 200 mg/mL
solubility ([3]; acetonitrile, 25 °C, organic solvent or mixture, thermodynamic from solid, Acetonitrile, 5 vol, 25° C.): > 200 mg/mL
solubility ([3]; diethyl ether, 25 °C, organic solvent or mixture, thermodynamic from solid, Diethyl ether, 5 vol, 25° C.): < 200 mg/mL
solubility ([3]; diethyl ether, 25 °C, organic solvent or mixture, thermodynamic from solid, Diethyl ether, 10 vol, 25° C.): < 100 mg/mL
solubility ([3]; diethyl ether, 25 °C, organic solvent or mixture, thermodynamic from solid, Diethyl ether, 50 vol, 25° C.): > 20 mg/mL
solubility ([3]; ethanol, 25 °C, organic solvent or mixture, thermodynamic from solid, Ethanol, 5 vol, 25° C.): < 200 mg/mL
solubility ([3]; ethanol, 50 °C, organic solvent or mixture, thermodynamic from solid, Ethanol, 5 vol, 50° C.): > 200 mg/mL
solubility ([3]; ethanol:water (9:1 v/v), 25 °C, organic solvent or mixture, thermodynamic from solid, Ethanol:Water (9:1 v/v), 5 vol, 25° C.): > 200 mg/mL
solubility ([3]; ethyl acetate, 25 °C, organic solvent or mixture, thermodynamic from solid, Ethyl acetate, 5 vol, 25° C.): > 200 mg/mL
Solubility in organic solvents ([3]; most of the organic solvents tested, water, diethyl ether and n-heptane are the exceptions): good solubility
solubility ([3]; n-heptane, 25 °C, organic solvent or mixture, thermodynamic from solid, n-heptane, 5 vol, 25° C.): < 200 mg/mL
solubility ([3]; n-heptane, 50 °C, organic solvent or mixture, thermodynamic from solid, n-heptane, 5 vol, 50° C.): < 200 mg/mL
solubility ([3]; n-heptane, 50 °C, organic solvent or mixture, thermodynamic from solid, n-heptane, 50 vol, 50° C.): < 20 mg/mL
solubility ([3]; nitromethane, 25 °C, organic solvent or mixture, thermodynamic from solid, Nitromethane, 5 vol, 25° C.): > 200 mg/mL
solubility ([3]; tetrahydrofuran, 25 °C, organic solvent or mixture, thermodynamic from solid, Tetrahydrofuran, 5 vol, 25° C.): > 200 mg/mL
solubility ([3]; toluene, 25 °C, organic solvent or mixture, thermodynamic from solid, Toluene, 5 vol, 25° C.): < 200 mg/mL
solubility ([3]; toluene, 50 °C, organic solvent or mixture, thermodynamic from solid, Toluene, 5 vol, 50° C.): > 200 mg/mL
solubility ([3]; water, 25 °C, water, thermodynamic from solid, Water, 5 vol, 25° C.): < 200 mg/mL
solubility ([3]; water, 25 °C, water, thermodynamic from solid, Water, 10 vol, 25° C.): < 100 mg/mL
solubility ([3]; water, 25 °C, water, thermodynamic from solid, Water, 50 vol, 25° C.): < 20 mg/mL
solubility ([3]; water, 50 °C, water, thermodynamic from solid, Water, 5 vol, 50° C.): < 200 mg/mL
solubility ([3]; water, 50 °C, water, thermodynamic from solid, Water, 10 vol, 50° C.): < 100 mg/mL
solubility ([3]; water, 50 °C, water, thermodynamic from solid, Water, 50 vol, 50° C.): < 20 mg/mL
Melting point (onset) [4]: 85.3 °C
XRPD after storage ([5]; 25° C./97% RH): XRPD - Unchanged
Purity after storage ([5]; 25° C./97% RH, 7 days): Purity - 7 days: 99.5%, 14 days: 99.5%
Purity after storage ([5]; 25° C./97% RH, 14 days): Purity - 7 days: 99.5%, 14 days: 99.5%
Stability after storage ([5]; 14 days at 25° C./75% RH): stable
Stability after storage ([5]; 14 days at 40° C./97% RH): stable
Compound: O=C1C[C@H](c2cc(F)c(F)c(F)c2)CN1Cn1ncnc1Cl [API, (4R)-1-[(5-chloro-1H-1,2,4-triazol-1-yl)methyl]-4-(3,4,5-trifluorophenyl)pyrrolidin-2-one]
XRPD post-GVS ([1]; sample re-analysed by XRPD after isotherm): no form change observed; also recorded: Unchanged by XRPD post-GVS
Purity after storage ([5]; 40° C./75% RH, 7 days): Purity - 7 days: 99.5%, 14 days: 99.5% XRPD -
Purity after storage ([5]; 40° C./75% RH, 14 days): Purity - 7 days: 99.5%, 14 days: 99.5% XRPD -
